Legend:
human SGLT1 = target: T1, human SGLT1 (Homo sapiens, UniProt P13866); assay: Cell-based assay for sodium-dependent glucose transport (14C-AMG uptake), CHOK-SGLT1; settings: 10 uM compound, CHO-K1 cells stably expressing human SGLT1, Na-dependent 14C-AMG uptake; for inhibition at 10 µM: read-out: CHOK-SGLT1 % Inh (10 uM)
T1 construct: expressed in transfected cells
T1 sequence (P13866 1-664): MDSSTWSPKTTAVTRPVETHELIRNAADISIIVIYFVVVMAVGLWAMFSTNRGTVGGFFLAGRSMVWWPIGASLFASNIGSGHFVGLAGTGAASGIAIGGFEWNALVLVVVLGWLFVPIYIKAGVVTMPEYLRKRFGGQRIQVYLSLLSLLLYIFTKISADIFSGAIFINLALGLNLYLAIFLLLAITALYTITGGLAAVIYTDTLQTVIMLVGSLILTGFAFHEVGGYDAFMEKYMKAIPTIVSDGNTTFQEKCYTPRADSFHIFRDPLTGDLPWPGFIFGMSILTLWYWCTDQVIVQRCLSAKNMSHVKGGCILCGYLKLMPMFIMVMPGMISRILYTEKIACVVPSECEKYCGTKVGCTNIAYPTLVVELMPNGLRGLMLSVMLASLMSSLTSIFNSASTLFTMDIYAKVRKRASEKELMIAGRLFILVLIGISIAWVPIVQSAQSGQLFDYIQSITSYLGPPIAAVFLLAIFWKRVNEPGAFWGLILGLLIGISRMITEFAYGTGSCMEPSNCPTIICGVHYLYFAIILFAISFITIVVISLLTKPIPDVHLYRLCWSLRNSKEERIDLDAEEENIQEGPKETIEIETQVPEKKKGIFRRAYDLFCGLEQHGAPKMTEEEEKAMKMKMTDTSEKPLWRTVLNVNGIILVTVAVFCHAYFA
Experimental: (§1) Cloning of the human SGLT1 and human SGLT2 cDNAs and construction of the mammalian expression vector: The human SGLT1 cDNA (Genbank M24847) was cloned from human small intestine. Human SGLT2 cDNA (Genbank M95549) was cloned from human kidney. Both full cDNAs were subcloned into pcDNA and sequenced to verify the integrity of the construct. Generation of CHO-K1 cells stably expressing human SGLT1 or human SGLT2: Transfection of CHO-K1 cells was performed using DMRIE-C reagent (Life Technologies, Gaithersburg, Md.). Transfectants were then selected in the presence of the antibiotic G418 (Gibco-BRL, Grand Island, N.Y.) at 400 μg/ml. Individual clones were then characterized using the functional assay described below. Cell-based assay for sodium-dependent glucose transport: Cell lines stably expressing human SGLT1 or SGLT2 were then used for functional analysis of Na^+-dependent glucose uptake. Briefly, cells were plated at a density of 65,000 cells per well in a 96-well plate and allowed to grow for 48 hours. Cells were subsequently washed one time with Assay Buffer (50 mM HEPES pH 7.4, 20 mM Tris, 5 mM KCl, 1 mM MgCl2, 1 mM CaCl2 and 137 mM NaCl) and treated with compound in the absence or presence of NaCl for 15 minutes. Cells were then labeled with ^14C-α-methylglucopyranoside (AMG, Sigma, St. Louis, Mo.), a non-metabolizable glucose analog specific for sodium-dependent glucose transporters as previously described (Peng, H. and Lever J. E. Post-transcriptional regulation of Na^+/glucose cotransporter (SGLT1) gene expression in LLC-PK1 cells. J Biol Chem 1995; 270:20536-20542.). After 2 hours the labelled cells were washed three times with ice-cold PBS. After aspiration, cells were solubilized using Microscint 20 (Packard, Meriden, Conn.) and Na-dependent ^14C-AMG uptake was quantified by measuring radioactivity. Plates were counted in a TopCount (Packard, Meriden, Conn.). Results are reported as the % inhibition or IC50 value from a representative experiment. Variability for the functional assay was typically within 20%.

human SGLT2 = target: T2, human SGLT2 (Homo sapiens, UniProt P31639); assay: Cell-based assay for sodium-dependent glucose transport (14C-AMG uptake), CHOK-SGLT2; settings: for inhibition at 10 µM: CHO-K1, read-out: CHOK-SGLT2 % Inh. @ 10 μM; for IC50: CHO-K1 cells stably expressing human SGLT2, Na-dependent 14C-AMG uptake, read-out: CHOK-SGLT2 IC50 (uM) ± SEM
T2 construct: expressed in transfected cells
T2 sequence (P31639 1-672): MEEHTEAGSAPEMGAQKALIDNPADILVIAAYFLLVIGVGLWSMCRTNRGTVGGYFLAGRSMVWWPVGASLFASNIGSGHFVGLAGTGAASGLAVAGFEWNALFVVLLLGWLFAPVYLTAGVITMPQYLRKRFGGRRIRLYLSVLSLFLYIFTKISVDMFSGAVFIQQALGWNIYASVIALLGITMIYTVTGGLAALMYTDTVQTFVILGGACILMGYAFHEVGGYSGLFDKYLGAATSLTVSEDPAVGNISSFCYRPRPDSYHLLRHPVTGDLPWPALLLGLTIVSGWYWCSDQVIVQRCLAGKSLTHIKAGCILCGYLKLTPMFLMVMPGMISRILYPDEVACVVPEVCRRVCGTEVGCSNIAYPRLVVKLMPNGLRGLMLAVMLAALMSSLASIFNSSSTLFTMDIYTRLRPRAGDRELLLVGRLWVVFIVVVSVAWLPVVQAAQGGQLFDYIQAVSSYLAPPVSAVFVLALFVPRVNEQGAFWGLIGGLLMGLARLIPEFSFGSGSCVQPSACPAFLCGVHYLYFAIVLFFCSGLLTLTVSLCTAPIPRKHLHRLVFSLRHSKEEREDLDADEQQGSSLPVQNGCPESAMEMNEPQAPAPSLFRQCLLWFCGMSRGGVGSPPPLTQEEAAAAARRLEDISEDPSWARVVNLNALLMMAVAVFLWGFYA
Experimental: as §1, with “experiment.” for “experiment. Variability for the functional assay was typically within 20%.”

Row | CHOK-SGLT1 % Inh (10 uM) (human SGLT1) | inhibition at 10 µM (human SGLT2) | IC50 (human SGLT2) | inhibition at 10 µM (human SGLT1) | Structure (SMILES)
1 | inactive | 67% | – | – | Cc1cc(OC2OC(CO)C(O)C(O)C2O)c2c(CCC3CCCCC3)n[nH]c2c1 [Example 17, 2-[3-(2-Cyclohexyl-ethyl)-6-methyl-1H-indazol-4-yloxy]-β-D-glucopyranoside]
2 | inactive | – | 0.532 ± 0.047 µM | – | CCc1cc(O[C@@H]2O[C@H](CO)[C@@H](O)[C@H](O)[C@H]2O)c2c(CCc3ccc4c(c3)CCO4)n[nH]c2c1 [Example 19, 2-{3-[2-(2,3-Dihydro-benzofuran-5-yl)-ethyl]-6-ethyl-1H-indazol-4-yloxy}-D-glucopyranoside]
3 | inactive | – | 1.59 ± 0.025 µM | – | Cc1cc(O[C@@H]2O[C@H](CO)[C@@H](O)[C@H](O)[C@H]2O)c2c(CCc3ccc4c(c3)OCCO4)n[nH]c2c1 [Example 3, 2-{3-[2-(2,3-Dihydro-benzo[1,4]dioxin-6-yl)-ethyl]-6-methyl-1H-indazol-4-yloxy}β-D-glucopyranoside]
4 | – | 69% | – | 14% | CC(=O)OC[C@H]1O[C@@H](Oc2cc(C)cc3[nH]nc(CCc4ccc5c(c4)CCO5)c23)[C@H](O)[C@@H](O)[C@@H]1O [Example 2, 2-{3-[2-(2,3-Dihydro-benzofuran-5-yl)-ethyl]-6-methyl-1H-indazol-4-yloxy}-6-O— acetyl-β-D-glucopyranoside]
5 | – | 64% | – | 38% | COc1ccc(SCc2n[nH]c3cccc(OC4OC(CO)C(O)C(O)C4O)c23)cc1 [Example 20, 2-[3-(4-Methoxy-phenylsulfanylmethyl)-1H-indazol-4-yloxy]-β-D-glucopyranoside]
6 | inactive | 36% | – | – | Cc1cc(OC2OC(CO)C(O)C(O)C2O)c2c(CCc3ccc(C(F)(F)F)cc3)n[nH]c2c1 [Example 12, 2-{3-[2-(4-Trifluoromethyl-phenyl)-ethyl]-6-methyl-1H-indazol-4-yloxy}β-D-glucopyranoside]
7 | – | – | 0.458 ± 0.061 µM | 48% | Cc1cc(O[C@@H]2O[C@H](CO)[C@@H](O)[C@H](O)[C@H]2O)c2c(CCc3ccc4c(c3)CCO4)n[nH]c2c1 [Example 1, 2-{3-[2-(2,3-Dihydro-benzofuran-5-yl)-ethyl]-6-methyl-1H-indazol-4-yloxy}β3-D-glucopyranoside]
8 | – | – | – | 52% | Cc1cc(O[C@@H]2OC(CO)[C@@H](O)[C@H](O)[C@H]2O)c2c(CCc3ccc4occc4c3)n[nH]c2c1 (stereo partly drawn) [Example 13, 2-[3-(2-Benzofuran-5-yl-ethyl)-6-methyl-1H-indazol-4-yloxy]-β-D-glucopyranoside]
9 | – | – | 3.05 ± 0.319 µM | 11% | COc1ccc(CCc2n[nH]c3cc(C)cc(OC4OC(CO)C(O)C(O)C4O)c23)cc1 [Example 9, 2-{3-[2-(4-Methoxy-phenyl)-ethyl]-6-methyl-1H-indazol-4-yloxy}β-D-glucopyranoside]
10 | – | – | 1.5 ± 0.071 µM | 42% | CC(=O)OC[C@H]1O[C@@H](Oc2cc(C)cc3[nH]nc(CCc4ccc5occc5c4)c23)[C@H](O)[C@@H](O)[C@@H]1O [Example 14, 2-[3-(2-Benzofuran-5-yl-ethyl)-6-methyl-1H-indazol-4-yloxy]-6-O-acetyl-β-D-glucopyranoside]
11 | – | – | 2 ± 0.071 µM | 5% | CCOc1ccc(CCc2n[nH]c3cc(C)cc(OC4OC(CO)C(O)C(O)C4O)c23)cc1 [Example 10, 2-{3-[2-(4-Ethoxy-phenyl)-ethyl]-6-methyl-1H-indazol-4-yloxy}β-D-glucopyranoside]
12 | – | 66% | – | 12% | Cc1cc(OC2OC(CO)C(O)C(O)C2O)c2c(CCc3ccc(Cl)cc3)n[nH]c2c1 [Example 11, 2-{3-[2-(4-Chloro-phenyl)-ethyl]-6-methyl-1H-indazol-4-yloxy}-β-D-glucopyranoside]
13 | – | – | 1.95 ± 0.816 µM | 18% | Cc1cc(OC2OC(CO)C(O)C(O)C2O)c2c(CCc3ccc4ccccc4c3)n[nH]c2c1 [Example 4, 2-[6-Methyl-3-(2-naphthalen-2-yl-ethyl)-1H-indazol-4-yloxy]-β-D-glucopyranoside]
